Measurements reported in patent US20230330112A1, “COMPOSITION AND TREATMENT FOR CANCER WITH MUTATIONS” (BRIDGE BIOTHERAPEUTICS, INC., priority 2022, published 2023).

Experiment: Phase 1 study of Compound A for NSCLC, safety
Type: in vivo, human
Description: A first-in-human phase 1 study is ongoing to evaluate the safety of Compound A, including a dose-escalation phase to characterize dose-limiting toxicities (DLTs) (FIG. 6) and determine the recommended phase 2 dose (NCT04820023). Eligibility criteria included advanced-stage NSCLC with an activating EGFR mutation and disease progression on at least one prior EGFR inhibitor. A measurable lesion was required for exploratory evaluation of efficacy. Starting from 20 mg QD (once daily; every day), Compound A dose levels were escalated after evaluating dose-DLT relationships and toxicity probabilities during the first 21 days of dosing.
All enrolled patients underwent ctDNA analysis (Guardant360, Guardant Health) at screening and every 6 weeks throughout treatment, which was compared to imaging at the same time points. Changes in allelic frequency were calculated as per the proprietary algorithm of Guardant Health (7). Intra-patient dose-escalation to the next dose level was allowed. Plasma samples were collected at prespecified time points at cycle 2, Day 1 following multiple doses (steady state) of Compound A in the dose-escalation cohorts, and the plasma concentrations were determined by a validated LC-MS/MS method with the LLOQ established at 1 ng/mL.

For `COc1cc(N2CCC(N3CCN(C)CC3)CC2)ccc1Nc1ncc(Cl)c(Nc2ccccc2NS(C)(=O)=O)n1` [Compound A, N-(2-((5-chloro-2-((2-methoxy-4-(4-(4-methylpiperazin-1-yl)piperidin-1-yl)phenyl)amino)pyrimidin-4-yl)amino)phenyl)methanesulfonamide], which “Anorexia, All grade, %” value (20 mg QD (N = 4)) is on record?
Its value is 0%.

And the “Anorexia, Grade ≥ 3, %” value (20 mg QD (N = 4))?
The value was 0%.

And the “Any TEAE, All grade, %” value (20 mg QD (N = 4))?
Its value is 75%.

And the “Any TEAE, Grade ≥ 3, %” value (20 mg QD (N = 4))?
The value was 25%.

And the “Constipation, All grade, %” value (20 mg QD (N = 4))?
The value was 0%.

What about the “Constipation, Grade ≥ 3, %” value (20 mg QD (N = 4)) of the same compound?
Its value is 0%.

What about the “Diarrhea, All grade, %” value (20 mg QD (N = 4)) of the same compound?
The value was 0%.

And the “Diarrhea, Grade ≥ 3, %” value (20 mg QD (N = 4))?
Its value is 0%.

And the “Dizziness, All grade, %” value (20 mg QD (N = 4))?
The value was 0%.

What about the “Dizziness, Grade ≥ 3, %” value (20 mg QD (N = 4)) of the same compound?
The value was 0%.

And the “Dyspepsia, All grade, %” value (20 mg QD (N = 4))?
The value was 0%.

What about the “Dyspepsia, Grade ≥ 3, %” value (20 mg QD (N = 4)) of the same compound?
The value was 0%.

And the “Nausea, All grade, %” value (20 mg QD (N = 4))?
The value was 0%.

And the “Nausea, Grade ≥ 3, %” value (20 mg QD (N = 4))?
The value was 0%.

And the “Neutropenia/Neutrophil count decreased, All grade, %” value (20 mg QD (N = 4))?
The value was 0%.

What about the “Neutropenia/Neutrophil count decreased, Grade ≥ 3, %” value (20 mg QD (N = 4)) of the same compound?
The value was 0%.

What about the “Platelet count decreased, All grade, %” value (20 mg QD (N = 4)) of the same compound?
The value was 0%.

What about the “Platelet count decreased, Grade ≥ 3, %” value (20 mg QD (N = 4)) of the same compound?
Its value is 0%.

And the “Serious TEAE, All grade, %” value (20 mg QD (N = 4))?
Its value is 0%.

And the “Serious TEAE, Grade ≥ 3, %” value (20 mg QD (N = 4))?
Its value is 0%.

And the “TEAE leading to Dose interruption, All grade, %” value (20 mg QD (N = 4))?
Its value is 0%.

And the “TEAE leading to Dose interruption, Grade ≥ 3, %” value (20 mg QD (N = 4))?
Its value is 0%.

What about the “TEAE leading to Dose permanently discontinued, All grade, %” value (20 mg QD (N = 4)) of the same compound?
Its value is 0%.

What about the “TEAE leading to Dose permanently discontinued, Grade ≥ 3, %” value (20 mg QD (N = 4)) of the same compound?
The value was 0%.

What about the “TEAE leading to Dose reduced, All grade, %” value (20 mg QD (N = 4)) of the same compound?
The value was 0%.

What about the “TEAE leading to Dose reduced, Grade ≥ 3, %” value (20 mg QD (N = 4)) of the same compound?
Its value is 0%.

And the “Vomiting, All grade, %” value (20 mg QD (N = 4))?
The value was 0%.

And the “Vomiting, Grade ≥ 3, %” value (20 mg QD (N = 4))?
Its value is 0%.

What about the “Anorexia, All grade, %” value (80 mg QD (N = 3)) of the same compound?
Its value is 0%.

And the “Anorexia, Grade ≥ 3, %” value (80 mg QD (N = 3))?
The value was 0%.

What about the “Any TEAE, All grade, %” value (80 mg QD (N = 3)) of the same compound?
Its value is 67%.

What about the “Any TEAE, Grade ≥ 3, %” value (80 mg QD (N = 3)) of the same compound?
The value was 0%.

What about the “Constipation, All grade, %” value (80 mg QD (N = 3)) of the same compound?
Its value is 33%.

What about the “Constipation, Grade ≥ 3, %” value (80 mg QD (N = 3)) of the same compound?
Its value is 0%.

And the “Diarrhea, All grade, %” value (80 mg QD (N = 3))?
Its value is 0%.

And the “Diarrhea, Grade ≥ 3, %” value (80 mg QD (N = 3))?
The value was 0%.

And the “Dizziness, All grade, %” value (80 mg QD (N = 3))?
Its value is 0%.

And the “Dizziness, Grade ≥ 3, %” value (80 mg QD (N = 3))?
The value was 0%.

What about the “Dyspepsia, All grade, %” value (80 mg QD (N = 3)) of the same compound?
Its value is 33%.

And the “Dyspepsia, Grade ≥ 3, %” value (80 mg QD (N = 3))?
Its value is 0%.

What about the “Nausea, All grade, %” value (80 mg QD (N = 3)) of the same compound?
Its value is 0%.

And the “Nausea, Grade ≥ 3, %” value (80 mg QD (N = 3))?
Its value is 0%.

What about the “Neutropenia/Neutrophil count decreased, All grade, %” value (80 mg QD (N = 3)) of the same compound?
Its value is 0%.

What about the “Neutropenia/Neutrophil count decreased, Grade ≥ 3, %” value (80 mg QD (N = 3)) of the same compound?
Its value is 0%.

What about the “Platelet count decreased, All grade, %” value (80 mg QD (N = 3)) of the same compound?
Its value is 0%.

And the “Platelet count decreased, Grade ≥ 3, %” value (80 mg QD (N = 3))?
Its value is 0%.

And the “Serious TEAE, All grade, %” value (80 mg QD (N = 3))?
Its value is 0%.

And the “Serious TEAE, Grade ≥ 3, %” value (80 mg QD (N = 3))?
Its value is 0%.

And the “TEAE leading to Dose interruption, All grade, %” value (80 mg QD (N = 3))?
The value was 0%.

And the “TEAE leading to Dose interruption, Grade ≥ 3, %” value (80 mg QD (N = 3))?
Its value is 0%.

What about the “TEAE leading to Dose permanently discontinued, All grade, %” value (80 mg QD (N = 3)) of the same compound?
The value was 0%.

And the “TEAE leading to Dose permanently discontinued, Grade ≥ 3, %” value (80 mg QD (N = 3))?
The value was 0%.

What about the “TEAE leading to Dose reduced, All grade, %” value (80 mg QD (N = 3)) of the same compound?
The value was 0%.

What about the “TEAE leading to Dose reduced, Grade ≥ 3, %” value (80 mg QD (N = 3)) of the same compound?
The value was 0%.

What about the “Vomiting, All grade, %” value (80 mg QD (N = 3)) of the same compound?
The value was 33%.

What about the “Vomiting, Grade ≥ 3, %” value (80 mg QD (N = 3)) of the same compound?
The value was 0%.

What about the “Anorexia, All grade, %” value (160 mg QD (N = 4)) of the same compound?
Its value is 0%.

What about the “Anorexia, Grade ≥ 3, %” value (160 mg QD (N = 4)) of the same compound?
Its value is 0%.

What about the “Any TEAE, All grade, %” value (160 mg QD (N = 4)) of the same compound?
The value was 75%.

What about the “Any TEAE, Grade ≥ 3, %” value (160 mg QD (N = 4)) of the same compound?
The value was 0%.

And the “Constipation, All grade, %” value (160 mg QD (N = 4))?
Its value is 25%.

And the “Constipation, Grade ≥ 3, %” value (160 mg QD (N = 4))?
The value was 0%.

What about the “Diarrhea, All grade, %” value (160 mg QD (N = 4)) of the same compound?
The value was 0%.

What about the “Diarrhea, Grade ≥ 3, %” value (160 mg QD (N = 4)) of the same compound?
Its value is 0%.

What about the “Dizziness, All grade, %” value (160 mg QD (N = 4)) of the same compound?
The value was 0%.

And the “Dizziness, Grade ≥ 3, %” value (160 mg QD (N = 4))?
The value was 0%.

What about the “Dyspepsia, All grade, %” value (160 mg QD (N = 4)) of the same compound?
Its value is 0%.

And the “Dyspepsia, Grade ≥ 3, %” value (160 mg QD (N = 4))?
Its value is 0%.

What about the “Nausea, All grade, %” value (160 mg QD (N = 4)) of the same compound?
The value was 25%.

What about the “Nausea, Grade ≥ 3, %” value (160 mg QD (N = 4)) of the same compound?
Its value is 0%.

What about the “Neutropenia/Neutrophil count decreased, All grade, %” value (160 mg QD (N = 4)) of the same compound?
The value was 0%.

And the “Neutropenia/Neutrophil count decreased, Grade ≥ 3, %” value (160 mg QD (N = 4))?
The value was 0%.

What about the “Platelet count decreased, All grade, %” value (160 mg QD (N = 4)) of the same compound?
The value was 0%.

What about the “Platelet count decreased, Grade ≥ 3, %” value (160 mg QD (N = 4)) of the same compound?
The value was 0%.

And the “Serious TEAE, All grade, %” value (160 mg QD (N = 4))?
The value was 25%.

And the “Serious TEAE, Grade ≥ 3, %” value (160 mg QD (N = 4))?
Its value is 0%.

What about the “TEAE leading to Dose interruption, All grade, %” value (160 mg QD (N = 4)) of the same compound?
Its value is 0%.

What about the “TEAE leading to Dose interruption, Grade ≥ 3, %” value (160 mg QD (N = 4)) of the same compound?
Its value is 0%.

What about the “TEAE leading to Dose permanently discontinued, All grade, %” value (160 mg QD (N = 4)) of the same compound?
Its value is 0%.

What about the “TEAE leading to Dose permanently discontinued, Grade ≥ 3, %” value (160 mg QD (N = 4)) of the same compound?
Its value is 0%.

What about the “TEAE leading to Dose reduced, All grade, %” value (160 mg QD (N = 4)) of the same compound?
The value was 0%.

What about the “TEAE leading to Dose reduced, Grade ≥ 3, %” value (160 mg QD (N = 4)) of the same compound?
The value was 0%.

And the “Vomiting, All grade, %” value (160 mg QD (N = 4))?
Its value is 25%.

What about the “Vomiting, Grade ≥ 3, %” value (160 mg QD (N = 4)) of the same compound?
Its value is 0%.

What about the “Treatment-related adverse events of grade ≥3” value (320 mg QD) of the same compound?
The value was “occurred”.

And the “Anorexia, All grade, %” value (320 mg QD (N = 3))?
Its value is 33%.

What about the “Anorexia, Grade ≥ 3, %” value (320 mg QD (N = 3)) of the same compound?
The value was 0%.
